Measured values: patent publication US11091479B2, “Triazolopyridin-3-ones or their salts and pharmaceutical compositions comprising the same” (YUHAN CORPORATION, priority 2018, dated 2021)
Structures can show the parent of a compound that is named as a salt.

Key:
Format in all cases: biochemical
recombinant human VAP-1 = molecular target: T1, recombinant human VAP-1 (Homo sapiens, UniProt Q16853); assay: Activity on recombinant human VAP-1, HRP-coupled Amplex Red hydrogen peroxide assay, benzylamine substrate; settings: 30 min incubation at 37° C., 1 mM benzylamine, read-out: Inhibitory Activity (IC50, nM) human VAP-1
T1 construct: purchased R&D systems
T1 sequence (Q16853 1-763): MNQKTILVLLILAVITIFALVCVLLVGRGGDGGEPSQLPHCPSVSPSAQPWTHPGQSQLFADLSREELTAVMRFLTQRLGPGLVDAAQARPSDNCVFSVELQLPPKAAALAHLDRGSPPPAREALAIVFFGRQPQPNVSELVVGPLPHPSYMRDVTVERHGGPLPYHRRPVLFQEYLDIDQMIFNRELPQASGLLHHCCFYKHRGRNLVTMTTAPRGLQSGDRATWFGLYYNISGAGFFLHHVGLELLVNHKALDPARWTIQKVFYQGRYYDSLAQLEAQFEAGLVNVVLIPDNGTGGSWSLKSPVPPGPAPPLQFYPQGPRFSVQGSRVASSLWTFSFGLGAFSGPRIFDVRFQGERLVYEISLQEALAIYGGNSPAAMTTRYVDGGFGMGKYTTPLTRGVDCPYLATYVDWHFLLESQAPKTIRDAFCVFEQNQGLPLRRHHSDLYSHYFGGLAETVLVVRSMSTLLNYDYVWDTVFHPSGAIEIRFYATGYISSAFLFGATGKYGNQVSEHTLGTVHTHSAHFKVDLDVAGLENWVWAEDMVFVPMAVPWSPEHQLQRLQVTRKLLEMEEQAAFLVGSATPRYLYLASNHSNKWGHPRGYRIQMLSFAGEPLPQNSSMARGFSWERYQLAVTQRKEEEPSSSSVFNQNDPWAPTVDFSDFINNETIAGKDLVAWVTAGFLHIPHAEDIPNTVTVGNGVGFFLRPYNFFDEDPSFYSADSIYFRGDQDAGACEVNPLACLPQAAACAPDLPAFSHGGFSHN
Summary of the method: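 Recombinant human VAP-1 in 50 mM sodium phosphate pH 7.4 preincubated with compound for 30 min at 37 °C, then 1 mM benzylamine, 200 uM Amplex Red and 1 U/mL HRP added. Resorufin fluorescence (ex 544/em 590 nm) followed over 1-2 h; % signal-rate decrease vs DMSO control, 8-point 4-parameter fit for IC50.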

[1] = molecular target: T2, recombinant human MAO-A (monoamine oxidase-A) (Homo sapiens, UniProt P21397); assay: Activity on recombinant human MAO-A, method similar to VAP-1 assay, 0.5 mM tyramine substrate; settings: read-out: Inhibitory Activity (IC50, nM) MAO-A
T2 construct: purchased Sigma-Aldrich
T2 sequence (P21397 1-527): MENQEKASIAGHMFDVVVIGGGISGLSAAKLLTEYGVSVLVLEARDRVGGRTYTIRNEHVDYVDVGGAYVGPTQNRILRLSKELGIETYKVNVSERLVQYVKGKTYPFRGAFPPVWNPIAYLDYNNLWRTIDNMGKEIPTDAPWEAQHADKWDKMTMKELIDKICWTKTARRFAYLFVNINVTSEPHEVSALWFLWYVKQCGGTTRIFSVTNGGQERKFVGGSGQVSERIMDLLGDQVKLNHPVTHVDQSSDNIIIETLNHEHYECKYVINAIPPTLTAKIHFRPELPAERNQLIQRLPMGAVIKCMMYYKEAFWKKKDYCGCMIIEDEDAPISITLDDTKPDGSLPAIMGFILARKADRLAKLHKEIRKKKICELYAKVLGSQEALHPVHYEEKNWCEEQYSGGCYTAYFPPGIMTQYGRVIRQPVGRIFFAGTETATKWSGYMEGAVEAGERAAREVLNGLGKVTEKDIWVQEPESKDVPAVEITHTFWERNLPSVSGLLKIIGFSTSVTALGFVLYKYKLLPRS
Summary of the method: (§1)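 Amplex Red/HRP-coupled H2O2 fluorescence assay run as for VAP-1: enzyme in 50 mM sodium phosphate pH 7.4 preincubated with compound 30 min at 37 °C, then substrate (putrescine for DAO, benzylamine for MAO-B, tyramine for MAO-A) added with 200 uM Amplex Red, 1 U/mL HRP. Signal rate over 1-2 h; IC50 from 4-parameter logistic fit.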

[2] = molecular target: T3, recombinant human MAO-B (monoamine oxidase-B) (Homo sapiens, UniProt P27338); assay: Activity on recombinant human MAO-B, method similar to VAP-1 assay, 1 mM benzylamine substrate; settings: read-out: Inhibitory Activity (IC50, nM) MAO-B
T3 construct: purchased Sigma-Aldrich
T3 sequence (P27338 1-520): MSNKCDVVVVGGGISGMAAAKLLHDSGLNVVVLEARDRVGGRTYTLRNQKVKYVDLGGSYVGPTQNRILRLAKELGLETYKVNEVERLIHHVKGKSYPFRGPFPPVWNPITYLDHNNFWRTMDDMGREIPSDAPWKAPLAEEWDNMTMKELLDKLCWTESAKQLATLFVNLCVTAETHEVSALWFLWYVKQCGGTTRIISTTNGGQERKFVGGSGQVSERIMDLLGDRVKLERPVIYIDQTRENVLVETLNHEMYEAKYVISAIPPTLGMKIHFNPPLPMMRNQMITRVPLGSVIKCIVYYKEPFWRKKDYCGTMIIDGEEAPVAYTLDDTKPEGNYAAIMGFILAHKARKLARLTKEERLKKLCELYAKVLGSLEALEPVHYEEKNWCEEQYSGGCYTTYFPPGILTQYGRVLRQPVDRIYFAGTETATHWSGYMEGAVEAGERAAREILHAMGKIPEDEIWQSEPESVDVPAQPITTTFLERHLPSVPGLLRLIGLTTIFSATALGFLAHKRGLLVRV
Summary of the method: as §1

[3] = molecular target: T4, recombinant human DAO (diamine oxidase) (Homo sapiens, UniProt P19801); assay: Activity on recombinant human DAO, method similar to VAP-1 assay, 1 mM putrescine substrate; settings: read-out: Inhibitory Activity (IC50, nM) DAO
T4 construct: purchased R&D systems
T4 sequence (P19801 20-751): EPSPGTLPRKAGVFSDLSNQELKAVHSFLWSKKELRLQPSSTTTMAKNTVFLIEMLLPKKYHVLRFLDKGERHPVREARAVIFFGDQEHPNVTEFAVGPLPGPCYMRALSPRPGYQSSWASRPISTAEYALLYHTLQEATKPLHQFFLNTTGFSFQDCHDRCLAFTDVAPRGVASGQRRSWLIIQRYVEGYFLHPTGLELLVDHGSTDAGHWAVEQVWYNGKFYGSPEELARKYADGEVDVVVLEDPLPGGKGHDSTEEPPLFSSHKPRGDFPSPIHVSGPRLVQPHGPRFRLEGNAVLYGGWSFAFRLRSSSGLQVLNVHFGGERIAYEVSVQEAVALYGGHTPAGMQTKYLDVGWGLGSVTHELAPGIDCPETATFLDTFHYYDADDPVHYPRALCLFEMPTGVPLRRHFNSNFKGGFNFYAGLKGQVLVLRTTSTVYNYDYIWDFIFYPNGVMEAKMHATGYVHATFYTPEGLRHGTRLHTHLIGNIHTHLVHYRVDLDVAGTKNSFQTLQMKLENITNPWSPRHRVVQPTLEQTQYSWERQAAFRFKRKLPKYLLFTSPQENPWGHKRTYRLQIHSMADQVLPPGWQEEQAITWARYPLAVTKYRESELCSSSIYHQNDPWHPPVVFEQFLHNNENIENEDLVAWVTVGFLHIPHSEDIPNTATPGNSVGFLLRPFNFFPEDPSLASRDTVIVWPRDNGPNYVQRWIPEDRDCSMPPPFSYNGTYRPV
Summary of the method: as §1

| Structure (SMILES) | IC50 (recombinant human VAP-1) | IC50 [1] | IC50 [2] | IC50 [3] |
| --- | --- | --- | --- | --- |
| NC/C(=C\F)Cn1nc2cc(-c3ccc(C(F)(F)F)nc3)ccn2c1=O [Example 30, 2-[(2E)-2-(aminomethyl)-3-fluoroprop-2-en-1-yl]-7-[6-(trifluoromethyl)pyridin-3-yl][1,2,4]triazolo[4,3-a]pyridin-3(2H)-one hydrochloride] | 0.3 nM | 68000 nM | 8.4 nM | 1.1 nM |
| CC(=O)Nc1ccc(-c2ccc3nn(C/C(=C/F)CN)c(=O)n3c2)cc1 [Example 2, N-[4-[2-[(2E)-2-(aminomethyl)-3-fluoroprop-2-en-1-yl]-3-oxo-2,3-dihydro[1,2,4]triazolo[4,3-a]pyridin-6-yl]phenyl]acetamide trifluoroacetate] | 6.2 nM | 68400 nM | 1780 nM | < 100 nM |
| Cc1cc(-c2ccc3nn(C/C(=C/F)CN)c(=O)n3c2)cc2c1NC(=O)CC2 [Example 17, 6-[2-[(2E)-2-(aminomethyl)-3-fluoroprop-2-en-1-yl]-3-oxo-2,3-dihydro[1,2,4]triazolo[4,3-a]pyridin-6-yl]-8-methyl-3,4-dihydroquinolin-2(1H)-one hydrochloride] | 0.6 nM | > 100000 nM | 290 nM | 0.3 nM |
| CS(=O)(=O)c1cccc(-c2ccn3c(=O)n(C/C(=C/F)CN)nc3c2)c1 [Example 22, 2-[(2E)-2-(aminomethyl)-3-fluoroprop-2-en-1-yl]-7-[3-(methylsulfonyl)phenyl][1,2,4]triazolo[4,3-a]pyridin-3(2H)-one hydrochloride] | 0.7 nM | > 100000 nM | 180 nM | 12 nM |
| NC/C(=C\F)Cn1nc2ccc(-c3cccc(-c4nc[nH]n4)c3)cn2c1=O [Example 6, 2-[(2E)-2-(aminomethyl)-3-fluoroprop-2-en-1-yl]-6-[3-(1H-1,2,4-triazol-3-yl)phenyl][1,2,4]triazolo[4,3-a]pyridin-3(2H)-one] | 2.1 nM | > 100000 nM | 73 nM | < 100 nM |
| NC/C(=C\F)Cn1nc2ccc(-c3ccc4sc(N)nc4c3)cn2c1=O [Example 14, 6-(2-amino-1,3-benzothiazol-5-yl)-2-[(2E)-2-(aminomethyl)-3-fluoroprop-2-en-1-yl][1,2,4]triazolo[4,3-a]pyridin-3(2H)-one trifluoroacetate] | 6.2 nM | > 100000 nM | 69 nM | < 100 nM |
| Cc1cc(-c2ccn3c(=O)n(C/C(=C/F)CN)nc3c2)cc2c1NC(=O)CC2 [Example 43, 6-[2-[(2E)-2-(aminomethyl)-3-fluoroprop-2-en-1-yl]-3-oxo-2,3-dihydro[1,2,4]triazolo[4,3-a]pyridin-7-yl]-8-methyl-3,4-dihydroquinolin-2(1H)-one hydrochloride] | 0.5 nM | > 100000 nM | 140 nM | 9.6 nM |
| NC/C(=C\F)Cn1nc2cc(-c3ccnc4[nH]ccc34)ccn2c1=O [Example 40, 2-[(2E)-2-(aminomethyl)-3-fluoroprop-2-en-1-yl]-7-(1H-pyrrolo[2,3-b]pyridin-4-yl)[1,2,4]triazolo[4,3-a]pyridin-3(2H)-one hydrochloride] | 0.3 nM | > 100000 nM | 760 nM | 9.4 nM |

The remaining lines, values ahead:

| IC50 (recombinant human VAP-1) | IC50 [1] | IC50 [2] | IC50 [3] | Structure (SMILES) |
| --- | --- | --- | --- | --- |
| 0.2 nM | > 100000 nM | 100 nM | 3 nM | NCC(Cn1nc2cc(-c3ccc(C(F)(F)F)nc3)ccn2c1=O)=C(F)F [Example 50, 2-[2-(aminomethyl)-3,3-difluoro-allyl]-7-[6-(trifluoromethyl)-3-pyridyl]-[1,2,4]triazolo[4,3-a]pyridin-3-one trifluoroacetate] |
| 0.3 nM | > 100000 nM | 5300 nM | 34 nM | NCC(Cn1nc2cc(C#Cc3ccc(N4CCOCC4)nc3)ccn2c1=O)=C(F)F [Example 58, 2-[2-(aminomethyl)-3,3-difluoro-allyl]-7-[2-(6-morpholino-3-pyridyl)ethynyl]-[1,2,4]triazolo[4,3-a]pyridin-3-one trifluoroacetate] |
| 0.1 nM | > 100000 nM | 170 nM | 22 nM | CN1C(=O)CCc2cc(-c3ccn4c(=O)n(CC(CN)=C(F)F)nc4c3)ccc21 [Example 54, 6-[2-[2-(aminomethyl)-3,3-difluoro-allyl]-3-oxo-[1,2,4]triazolo[4,3-a]pyridin-7-yl]-1-methyl-3,4-dihydroquinolin-2-one trifluoroacetate] |
| 0.2 nM | > 100000 nM | 320 nM | 12 nM | Cc1cc(-c2ccn3c(=O)n(CC(CN)=C(F)F)nc3c2)cc2c1NC(=O)CC2 [Example 53, 6-[2-[2-(aminomethyl)-3,3-difluoro-allyl]-3-oxo-[1,2,4]triazolo[4,3-a]pyridin-7-yl]-8-methyl-3,4-dihydro-1H-quinolin-2-one trifluoroacetate] |
| 0.4 nM | > 100000 nM | 150 nM | 17 nM | CN(C)c1ccc(-c2ccn3c(=O)n(CC(CN)=C(F)F)nc3c2)cn1 [Example 51, 2-[2-(aminomethyl)-3,3-difluoro-allyl]-7-[6-(dimethylamino)-3-pyridyl]-[1,2,4]triazolo[4,3-a]pyridin-3-one trifluoroacetate] |
